Laboratory results taken from ChEMBL document CHEMBL1139321, “Discovery of novel spirocyclopropyl hydroxamate and carboxylate compounds as TACE inhibitors” (Bioorg Med Chem Lett, 2009).

What was measured:
[1] = molecular target: Disintegrin and metalloproteinase domain-containing protein 17 (Homo sapiens, UniProt P78536)
Description: Inhibition of TACE catalytic domain by FRET assay

Blood = assay: Inhibition of LPS-induced TNFalpha production in human whole blood after 1 hr by ELISA; assay type: functional, tissue-based

Disintegrin and metalloproteinase domain-containing protein 17, sequence (P78536 whole entry, the tested form may be a part): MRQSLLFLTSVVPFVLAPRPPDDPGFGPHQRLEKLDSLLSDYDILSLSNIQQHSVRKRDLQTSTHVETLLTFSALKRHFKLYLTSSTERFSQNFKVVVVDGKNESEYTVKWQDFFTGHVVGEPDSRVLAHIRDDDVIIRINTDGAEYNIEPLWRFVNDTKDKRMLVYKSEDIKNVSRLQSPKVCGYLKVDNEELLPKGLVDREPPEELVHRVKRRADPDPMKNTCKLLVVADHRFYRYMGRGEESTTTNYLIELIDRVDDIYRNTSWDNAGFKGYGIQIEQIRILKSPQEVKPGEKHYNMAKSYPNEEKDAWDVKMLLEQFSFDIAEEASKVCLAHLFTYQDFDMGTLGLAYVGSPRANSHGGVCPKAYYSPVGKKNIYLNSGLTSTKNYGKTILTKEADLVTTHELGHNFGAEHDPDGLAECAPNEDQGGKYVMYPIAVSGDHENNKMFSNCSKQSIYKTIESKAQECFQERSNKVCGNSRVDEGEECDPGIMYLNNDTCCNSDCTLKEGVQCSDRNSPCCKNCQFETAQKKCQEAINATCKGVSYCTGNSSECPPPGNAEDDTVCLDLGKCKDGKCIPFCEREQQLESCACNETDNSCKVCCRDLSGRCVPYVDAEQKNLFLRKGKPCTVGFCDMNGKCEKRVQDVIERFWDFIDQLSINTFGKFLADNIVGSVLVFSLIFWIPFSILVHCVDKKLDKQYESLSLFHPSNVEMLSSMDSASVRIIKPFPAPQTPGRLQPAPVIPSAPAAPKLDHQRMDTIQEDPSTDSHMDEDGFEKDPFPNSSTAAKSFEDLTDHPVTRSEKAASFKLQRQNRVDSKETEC

Row | Structure (SMILES) | Ki [1] | IC50 (Blood)
1 | Cc1cc(COc2ccc(C3C[C@@]4(C[C@@H]4C(=O)NO)C(=O)N3)cc2)c2ccccc2n1 (stereo partly specified) | 32 nM | –
2 | O=C(NO)[C@H]1C[C@@]12CC(c1ccc(OCc3cc(-c4ccncc4)nc4ccccc34)cc1)NC2=O (stereo partly specified) | 33 nM | –
3 | O=C(NO)[C@H]1C[C@@]12CC(c1ccc(OCc3cc(-c4cccnc4)nc4ccccc34)cc1)NC2=O (mixture of isomers) | 32 nM | –
4 | O=C(O)[C@H]1C[C@@]12CC(c1ccc(OCc3cc(-c4cccnc4)nc4ccccc34)cc1)NC2=O (mixture of isomers) | 3220 nM | –
5 | O=C(NO)[C@H]1C[C@@]12CC(c1ccc(OCc3cc(C(F)(F)F)nc4ccccc34)cc1)NC2=O (mixture of isomers) | 53 nM | > 100 nM
6 | O=C(O)[C@H]1C[C@@]12CC(c1ccc(OCc3cc(C(F)(F)F)nc4ccccc34)cc1)NC2=O (mixture of isomers) | 2140 nM | > 100 nM
7 | Cc1cc(COc2ccc(C3C[C@@]4(C[C@@H]4C(=O)O)C(=O)N3)cc2)c2ccccc2n1 (mixture of isomers) | 3070 nM | –
8 | O=C(O)[C@H]1C[C@@]12CC(c1ccc(OCc3cc(-c4ccncc4)nc4ccccc34)cc1)NC2=O (mixture of isomers) | 673 nM | –
9 | O=C(NO)[C@H]1C[C@@]12CC(c1ccc(OCc3cc(-c4ccccc4)nc4ccccc34)c(F)c1)NC2=O (mixture of isomers) | 6.7 nM | > 100 nM

Results, then the molecule that gave them:

Row | Ki [1] | IC50 (Blood) | Structure (SMILES)
10 | 30 nM | > 100 nM | O=C(NO)[C@H]1C[C@@]12CC(c1ccc(OCc3cc(-c4ccccc4)nc4ccccc34)cc1)NC2=O (mixture of isomers)
11 | 137 nM | – | CN1C(=O)[C@@]2(CC1c1ccc(OCc3cc(-c4ccccc4)nc4ccccc34)c(F)c1)C[C@@H]2C(=O)NO (mixture of isomers)
12 | 40 nM | > 100 nM | O=C(O)[C@H]1C[C@@]12CC(c1ccc(OCc3cc(-c4ccccc4)nc4ccccc34)c(F)c1)NC2=O (mixture of isomers)
13 | > 50000 nM | – | COC(=O)[C@H]1C[C@@]12CC(c1ccc(OCc3cc(-c4ccccc4)nc4ccccc34)c(F)c1)N(C)C2=O (mixture of isomers)
14 | 94 nM | – | CN1C(=O)[C@@]2(CC1c1ccc(OCc3cc(-c4ccccc4)nc4ccccc34)c(F)c1)C[C@@H]2C(=O)O (mixture of isomers)
15 | 143 nM | > 100 nM | O=C(O)[C@H]1C[C@@]12CC(c1ccc(OCc3cc(-c4ccccc4)nc4ccccc34)cc1)NC2=O (mixture of isomers)
